{"source": "patent US11078496B2", "about": "“System for F-box hormone receptor regulated protein expression in mammalian cells” (ICAHN SCHOOL OF MEDICINE AT MOUNT SINAI, priority 2016, dated 2021)", "system": "J-p53 (OsJAZ^33-p53)", "assay": "Coronatine-dependent degradation of J-p53 in H9 hESCs (western blot quantification)", "assay_type": "cell-based, human", "details": "50 μM coronatine, 1 day", "method": "FIGS. 11A-11G illustrate a coronatine-induced degradation rescue system. […] GFP fluorescence was measured by flow cytometry and % degradation was calculated. The corresponding components and biological replicate number (n) are indicated. The bar for pJAZ 6-Os23 is in grey color, to indicate reduced GFP fluorescence in non-treated cells (FIG. 10F). […] GFP fluorescence was measured using flow cytometry. The experiment was repeated three times, and representative results are presented. In FIGS. 11C-11D, H9 hESCs were infected with pJAZ NLS-GFP-OsJAZ^33 (“GFP-J”) or pJAZ OsJAZ^33-p^53 (“J-p53”) that harbors an shRNA targeting the 3′-UTR of p53 and an OsJAZ^33degron-fused p53 coding sequence lacking UTRs. […] P-values were calculated using unpaired Student's t-test. […] After 24 hours, microscopic bright-field (“BF”) and fluorescence images were taken (FIG. 11E, scale bars, 100 μm) and cells were subjected to flow analysis (FIG. 11F, contour plots; FIG. 11G, quantification, error bars represent standard deviation.). […]\nCells were lysed in RIPA-B buffer (20 mM Na2HPO4 pH 7.4, 150 mM NaCl and 1% Triton X-100) supplemented with Protease Inhibitor Cocktail (Roche) for 30 minutes on ice with occasional vortexing, followed by 30 minutes centrifugation at 13,000 relative centrifugal force at 4° C. […] Luminescence was detected with X-ray films, which were scanned, or using the Bio-Rad ChemiDoc MP System. […]"}
{"smiles": "CC[C@H]1C=C(C(=O)N[C@@]2(C(=O)O)C[C@@H]2CC)[C@H]2CCC(=O)[C@H]2C1", "note": "[coronatine, Coronatine]", "values": [{"measurement": "coronatine-dependent degradation of J-p53", "result": 90, "unit": "%"}]}
